Experimental data from the NIST ThermoML archive (doi:10.1021/je100237h).

Settings: Liquid; for viscosity: 101.33 kPa, Concentric cylinders viscometry; for mass density: Vibrating tube method

CC(C)COC(=O)CCCCC(=O)OCC(C)C [diisobutyl adipate]
Settings | viscosity [mPa·s]
283.15 K | 8.56
288.15 K | 7.22
293.15 K | 6.17
298.15 K | 5.33
303.15 K | 4.65
308.15 K | 4.09
313.15 K | 3.63
318.15 K | 3.24
323.15 K | 2.92
328.15 K | 2.64
333.15 K | 2.4
338.15 K | 2.19
343.15 K | 2.01
348.15 K | 1.85
353.15 K | 1.71
358.15 K | 1.59
363.15 K | 1.48
368.15 K | 1.38
373.15 K | 1.29

Settings | mass density [kg/m3]
293.15 K, 100 kPa | 951.7
293.15 K, 10000 kPa | 958.4
293.15 K, 20000 kPa | 964.7
293.15 K, 30000 kPa | 970.6
293.15 K, 40000 kPa | 976.1
293.15 K, 50000 kPa | 981.4
293.15 K, 60000 kPa | 986.4
293.15 K, 70000 kPa | 991.2
293.15 K, 80000 kPa | 995.9
293.15 K, 90000 kPa | 1000.3
293.15 K, 100000 kPa | 1004.7
293.15 K, 110000 kPa | 1008.7
293.15 K, 120000 kPa | 1012.7
293.15 K, 130000 kPa | 1016.6
293.15 K, 140000 kPa | 1020.3
303.15 K, 100 kPa | 942.8
303.15 K, 10000 kPa | 949.9
303.15 K, 20000 kPa | 956.4
303.15 K, 30000 kPa | 962.6
303.15 K, 40000 kPa | 968.3
303.15 K, 50000 kPa | 974
303.15 K, 60000 kPa | 979.1
303.15 K, 70000 kPa | 984.2
303.15 K, 80000 kPa | 989
303.15 K, 90000 kPa | 993.4
303.15 K, 100000 kPa | 997.8
303.15 K, 110000 kPa | 1002.1
303.15 K, 120000 kPa | 1006.3
303.15 K, 130000 kPa | 1010.3
303.15 K, 140000 kPa | 1014
313.15 K, 100 kPa | 934.2
313.15 K, 10000 kPa | 941.6
313.15 K, 20000 kPa | 948.5
313.15 K, 30000 kPa | 954.9
313.15 K, 40000 kPa | 960.9
313.15 K, 50000 kPa | 966.6
313.15 K, 60000 kPa | 972.1
313.15 K, 70000 kPa | 977.2
313.15 K, 80000 kPa | 982
313.15 K, 90000 kPa | 986.7
313.15 K, 100000 kPa | 991.2
313.15 K, 110000 kPa | 995.6
313.15 K, 120000 kPa | 999.9
313.15 K, 130000 kPa | 1003.9
313.15 K, 140000 kPa | 1007.9
323.15 K, 100 kPa | 925.6
323.15 K, 10000 kPa | 933.4
323.15 K, 20000 kPa | 940.5
323.15 K, 30000 kPa | 947.3
323.15 K, 40000 kPa | 953.7
323.15 K, 50000 kPa | 959.7
323.15 K, 60000 kPa | 965.2
323.15 K, 70000 kPa | 970.6
323.15 K, 80000 kPa | 975.6
323.15 K, 90000 kPa | 980.5
323.15 K, 100000 kPa | 985.3
323.15 K, 110000 kPa | 989.8
323.15 K, 120000 kPa | 994.2
323.15 K, 130000 kPa | 998.3
323.15 K, 140000 kPa | 1003
333.15 K, 100 kPa | 916.7
333.15 K, 10000 kPa | 924.9
333.15 K, 20000 kPa | 932.4
333.15 K, 30000 kPa | 939.3
333.15 K, 40000 kPa | 945.8
333.15 K, 50000 kPa | 952
333.15 K, 60000 kPa | 957.8
333.15 K, 70000 kPa | 963.3
333.15 K, 80000 kPa | 968.5
333.15 K, 90000 kPa | 973.4
333.15 K, 100000 kPa | 978.2
333.15 K, 110000 kPa | 982.8
333.15 K, 120000 kPa | 987.3
333.15 K, 130000 kPa | 991.6
333.15 K, 140000 kPa | 995.7
343.15 K, 100 kPa | 908.1
343.15 K, 10000 kPa | 916.3
343.15 K, 20000 kPa | 924.3
343.15 K, 30000 kPa | 931.5
343.15 K, 40000 kPa | 938.3
343.15 K, 50000 kPa | 944.7
343.15 K, 60000 kPa | 950.8
343.15 K, 70000 kPa | 956.3
343.15 K, 80000 kPa | 961.8
343.15 K, 90000 kPa | 967
343.15 K, 100000 kPa | 971.8
343.15 K, 110000 kPa | 976.5
343.15 K, 120000 kPa | 981.1
343.15 K, 130000 kPa | 985.5
343.15 K, 140000 kPa | 989.7
353.15 K, 100 kPa | 899.3
353.15 K, 10000 kPa | 908
353.15 K, 20000 kPa | 916.2
353.15 K, 30000 kPa | 923.7
353.15 K, 40000 kPa | 930.9
353.15 K, 50000 kPa | 937.7
353.15 K, 60000 kPa | 943.9
353.15 K, 70000 kPa | 950
353.15 K, 80000 kPa | 955.5
353.15 K, 90000 kPa | 960.8
353.15 K, 100000 kPa | 965.7
353.15 K, 110000 kPa | 970.5
353.15 K, 120000 kPa | 974.9
353.15 K, 130000 kPa | 979.5
353.15 K, 140000 kPa | 983.7
363.15 K, 100 kPa | 890.2
363.15 K, 10000 kPa | 899.9
363.15 K, 20000 kPa | 908.7
363.15 K, 30000 kPa | 916.4
363.15 K, 40000 kPa | 923.7
363.15 K, 50000 kPa | 930.4
363.15 K, 60000 kPa | 936.9
363.15 K, 70000 kPa | 943.2
363.15 K, 80000 kPa | 948.9
363.15 K, 90000 kPa | 954.1
363.15 K, 100000 kPa | 959.4
363.15 K, 110000 kPa | 964.4
363.15 K, 120000 kPa | 969
363.15 K, 130000 kPa | 973.7
363.15 K, 140000 kPa | 978.1
373.15 K, 100 kPa | 882.3
373.15 K, 10000 kPa | 891.5
373.15 K, 20000 kPa | 900.5
373.15 K, 30000 kPa | 908.6
373.15 K, 40000 kPa | 916.5
373.15 K, 50000 kPa | 923.3
373.15 K, 60000 kPa | 930.1
373.15 K, 70000 kPa | 936.4
373.15 K, 80000 kPa | 942.2
373.15 K, 90000 kPa | 947.8
373.15 K, 100000 kPa | 953.2
373.15 K, 110000 kPa | 958.2
373.15 K, 120000 kPa | 963.2
373.15 K, 130000 kPa | 967.8
373.15 K, 140000 kPa | 972.5
383.15 K, 100 kPa | 873.2
383.15 K, 10000 kPa | 883.6
383.15 K, 20000 kPa | 893.1
383.15 K, 30000 kPa | 901.7
383.15 K, 40000 kPa | 909.6
383.15 K, 50000 kPa | 916.6
383.15 K, 60000 kPa | 923.5
383.15 K, 70000 kPa | 929.4
383.15 K, 80000 kPa | 935.7
383.15 K, 90000 kPa | 941.2
383.15 K, 100000 kPa | 946.7
383.15 K, 110000 kPa | 951.8
383.15 K, 120000 kPa | 957
383.15 K, 130000 kPa | 961.5
383.15 K, 140000 kPa | 966.1
393.15 K, 100 kPa | 864.7
393.15 K, 10000 kPa | 875.3
393.15 K, 20000 kPa | 885.1
393.15 K, 30000 kPa | 893.9
393.15 K, 40000 kPa | 902.1
393.15 K, 50000 kPa | 909.5
393.15 K, 60000 kPa | 916.6
393.15 K, 70000 kPa | 923.2
393.15 K, 80000 kPa | 929.5
393.15 K, 90000 kPa | 935.3
393.15 K, 100000 kPa | 941.1
393.15 K, 110000 kPa | 946.2
393.15 K, 120000 kPa | 951.4
393.15 K, 130000 kPa | 956.3
393.15 K, 140000 kPa | 960.9
403.15 K, 100 kPa | 856.8
403.15 K, 10000 kPa | 867.3
403.15 K, 20000 kPa | 877.3
403.15 K, 30000 kPa | 886.5
403.15 K, 40000 kPa | 894.8
403.15 K, 50000 kPa | 902.7
403.15 K, 60000 kPa | 909.9
403.15 K, 70000 kPa | 916.6
403.15 K, 80000 kPa | 923.3
403.15 K, 90000 kPa | 929.4
403.15 K, 100000 kPa | 935
403.15 K, 110000 kPa | 940.3
403.15 K, 120000 kPa | 945.5
403.15 K, 130000 kPa | 950.6
403.15 K, 140000 kPa | 955.4
